Experimental data published in patent publication US9695155B2, “Herbicidal substituted pyrimidinyloxy benzene compounds” (E. I. DU PONT DE NEMOURS AND COMPANY, priority 2013, dated 2017).

Experiments:
kochia [1] = test: Test A preemergence; type: in vivo, Kochia scoparia; settings: 0 to 100 scale where 0 is no effect and 100 is complete control
Method in brief: (§1)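 Compounds in non-phytotoxic solvent with surfactant applied as soil spray preemergence, or postemergence to plants 2-10 cm at one- to two-leaf stage, in loam/sand. After approximately 10 days in greenhouse, injury rated visually versus untreated controls, 0 (no effect) to 100 (complete control).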

barnyardgrass [2] = test: Test A postemergence; type: in vivo, Echinochloa crus-galli
Method in brief: as §1

kochia [3] = test: Test A postemergence; type: in vivo, Kochia scoparia
Method in brief: as §1

ragweed [4] = test: Test A postemergence; type: in vivo, Ambrosia elatior
Method in brief: as §1

corn = test: Test A postemergence; type: in vivo, Zea mays
Method in brief: as §1

wheat, winter = test: Test C postemergence; type: in vivo, Triticum aestivum; settings: for Plant response rating (0 to 100), Wheat: 0 is no effect, 100 is complete control
Method in brief: (§2)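 Visual ratings on a 0–100 scale (100 = complete control) were made versus untreated controls after 13–15 greenhouse days. Chemicals in a surfactant-containing non-phytotoxic solvent were applied either preemergence to seeds in loam–sand soil or postemergence to 1- to 4-leaf plants 2–18 cm tall.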

galium = test: Test C postemergence; type: in vivo, Galium aparine; settings: for Plant response rating (0 to 100), Galium: 0 is no effect, 100 is complete control
Method in brief: as §2

yellow nutsedge = test: Test C postemergence; type: in vivo, Cyperus esculentus; settings: for Plant response rating (0 to 100), Nutsedge, Yellow: 0 is no effect, 100 is complete control
Method in brief: as §2

ragweed [5] = test: Test C postemergence; type: in vivo, Ambrosia elatior; settings: for Plant response rating (0 to 100), Ragweed: 0 is no effect, 100 is complete control
Method in brief: as §2

barnyardgrass [6] = test: Test C postemergence; type: in vivo, Echinochloa crus-galli; settings: for Plant response rating (0 to 100), Barnyardgrass: 0 is no effect, 100 is complete control
Method in brief: as §2

waterhemp = test: Test C postemergence; type: in vivo, Amaranthus rudis; settings: for Plant response rating (0 to 100), Waterhemp: 0 is no effect, 100 is complete control
Method in brief: as §2

wild oat = test: Test C postemergence; type: in vivo, Avena fatua; settings: for Plant response rating (0 to 100), Oat, Wild: 0 is no effect, 100 is complete control
Method in brief: as §2

[7] = 125 g ai/ha, 0 to 100 scale where 0 is no effect and 100 is complete control
[8] = 500 g ai/ha, 0 to 100 scale where 0 is no effect and 100 is complete control
[9] = 125 g ai/ha, postemergence, visual rating, scale 0 to 100 (0 no effect, 100 complete control)
[10] = Postemergence, 62 g ai/ha, scale 0 to 100 (0 no effect, 100 complete control)
[11] = 31 g ai/ha, 0 to 100 scale, 0 no effect, 100 complete control
[12] = 31 g ai/ha, postemergence, visual rating, scale 0 to 100 (0 no effect, 100 complete control), 13 to 15 days

In the case of `Clc1cnc(Oc2cccc(Br)c2-n2cc(I)nn2)nc1` [Compound 117], the “Plant response rating, Kochia” value (kochia [1]; 125 g ai/ha) was 70, the “Kochia plant response rating” value (kochia [1]; 500 g ai/ha) was 100 and the “Plant response rating, Barnyardgrass” value (barnyardgrass [2]; [7]) was 70. The “Plant response rating, Barnyardgrass” value (barnyardgrass [2]; [8]) was 90, the “Plant response rating, Kochia” value (kochia [3]; [7]) was 100 and the “Plant response rating, Kochia” value (kochia [3]; [8]) was 100. The “Plant response rating, Ragweed” value (ragweed [4]; [8]) was 100, the “Plant response rating, Corn” value (corn; [7]) was 30 and the “Plant response rating, Corn” value (corn; [8]) was 50. The “Plant response rating (0 to 100), Wheat” value (wheat, winter; 16 g ai/ha, postemergence) was 0, the “Plant response rating, Wheat” value (wheat, winter; [9]) was 20 and the “Plant response rating, Wheat” value (wheat, winter; [10]) was 5. The “Plant response rating (0 to 100), Galium” value (galium; 16 g ai/ha, postemergence) was 80, the “Plant response rating, Galium” value (galium; [9]) was 80 and the “Plant response rating, Galium” value (galium; [10]) was 70. The “Plant response rating (0 to 100), Nutsedge, Yellow” value (yellow nutsedge; 16 g ai/ha, postemergence) was 5, the “Plant response rating, Nutsedge, Yellow” value (yellow nutsedge; [9]) was 5 and the “Plant response rating, Nutsedge, Yellow” value (yellow nutsedge; [10]) was 5. For the same molecule, the “Plant response rating (0 to 100), Ragweed” value (ragweed [5]; 16 g ai/ha, postemergence) was 25, the “Plant response rating, Ragweed” value (ragweed [5]; [9]) was 60 and the “Plant response rating, Ragweed” value (ragweed [5]; [10]) was 35. For the same molecule, the “Plant response rating (0 to 100), Barnyardgrass” value (barnyardgrass [6]; 16 g ai/ha, postemergence) was 5, the “Plant response rating, Barnyardgrass” value (barnyardgrass [6]; [9]) was 10 and the “Plant response rating, Barnyardgrass” value (barnyardgrass [6]; Postemergence, 31 g ai/ha, scale 0 to 100 (0 no effect, 100 complete control), 13 to 15 days) was 5. For the same molecule, the “Plant response rating, Barnyardgrass” value (barnyardgrass [6]; [10]) was 5, the “Plant response rating (0 to 100), Waterhemp” value (waterhemp; 16 g ai/ha, postemergence) was 60 and the “Plant response rating, Waterhemp” value (waterhemp; [9]) was 90. The “Plant response rating, Waterhemp” value (waterhemp; [10]) was 85, the “Plant response rating (0 to 100), Oat, Wild” value (wild oat; 16 g ai/ha, postemergence) was 10 and the “Plant response rating, Oat, Wild” value (wild oat; [9]) was 20. The “Plant response rating, Oat, Wild” value (wild oat; [10]) was 10.

In the case of `FCc1cccc(Oc2ncc(F)cn2)c1-n1cc(I)cn1` [Compound 152], the “Plant response rating, Kochia” value (kochia [1]; 31 g ai/ha, visual, approximately 10 days) was 20, the “Plant response rating, Kochia” value (kochia [1]; 125 g ai/ha) was 90 and the “Plant response rating, Barnyardgrass” value (barnyardgrass [2]; [11]) was 0. The “Barnyardgrass plant response rating” value (barnyardgrass [2]; [7]) was 30, the “Plant response rating, Kochia” value (kochia [3]; [11]) was 20 and the “Kochia plant response rating” value (kochia [3]; [7]) was 80. The “Plant response rating, Ragweed” value (ragweed [4]; [11]) was 20, the “Ragweed plant response rating” value (ragweed [4]; [7]) was 20 and the “Plant response rating, Corn” value (corn; [11]) was 20. The “Corn plant response rating” value (corn; [7]) was 30, the “Plant response rating (0 to 100), Wheat” value (wheat, winter; 8 g ai/ha, postemergence) was 0 and the “Plant response rating (0 to 100), Wheat” value (wheat, winter; 16 g ai/ha, postemergence) was 0. The “Wheat plant response rating” value (wheat, winter; [12]) was 0, the “Plant response rating (0 to 100), Galium” value (galium; 8 g ai/ha, postemergence) was 15 and the “Plant response rating (0 to 100), Galium” value (galium; 16 g ai/ha, postemergence) was 35. For the same molecule, the “Galium plant response rating” value (galium; [12]) was 55, the “Plant response rating (0 to 100), Nutsedge, Yellow” value (yellow nutsedge; 8 g ai/ha, postemergence) was 0 and the “Plant response rating (0 to 100), Nutsedge, Yellow” value (yellow nutsedge; 16 g ai/ha, postemergence) was 0. The “Nutsedge, Yellow plant response rating” value (yellow nutsedge; [12]) was 0, the “Plant response rating (0 to 100), Ragweed” value (ragweed [5]; 8 g ai/ha, postemergence) was 15 and the “Plant response rating (0 to 100), Ragweed” value (ragweed [5]; 16 g ai/ha, postemergence) was 10. For the same molecule, the “Ragweed plant response rating” value (ragweed [5]; [12]) was 40, the “Plant response rating (0 to 100), Barnyardgrass” value (barnyardgrass [6]; 4 g ai/ha, postemergence) was 0 and the “Plant response rating (0 to 100), Barnyardgrass” value (barnyardgrass [6]; 8 g ai/ha, postemergence) was 0. The “Plant response rating (0 to 100), Barnyardgrass” value (barnyardgrass [6]; 16 g ai/ha, postemergence) was 5, the “Barnyardgrass plant response rating” value (barnyardgrass [6]; [12]) was 5 and the “Plant response rating (0 to 100), Waterhemp” value (waterhemp; 8 g ai/ha, postemergence) was 15. The “Plant response rating (0 to 100), Waterhemp” value (waterhemp; 16 g ai/ha, postemergence) was 45, the “Waterhemp plant response rating” value (waterhemp; [12]) was 60 and the “Plant response rating (0 to 100), Oat, Wild” value (wild oat; 8 g ai/ha, postemergence) was 0. For the same molecule, the “Plant response rating (0 to 100), Oat, Wild” value (wild oat; 16 g ai/ha, postemergence) was 0 and the “Oat, Wild plant response rating” value (wild oat; [12]) was 5.
